According to patent US20160319277A1, “METHODS OF IMPROVED PROTEIN PRODUCTION USING MIRNAs AND SIRNAs” (THE JOHNS HOPKINS UNIVERSITY, priority 2015, published 2016):

Tested on: HEK-CMV-Luc2-Hygro cells
Experiment: High-throughput genome-wide siRNA screen and validation screen for luciferase expression
Format: cell-based, human
Details: Table 4; primary screen, 72 h, negative control = 100%
How it was run: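 HEK cells with CMV-driven luciferase were reverse-transfected with 0.8 pmol siRNA per well (3 per gene) via RNAiMax and grown 72 h at 37 °C. Duplicate wells read for luciferase (ONE-Glo) and viability (CellTiter-Glo). Values given as % of plate negative-control median with MAD-based z-scores; hits with ≥2 siRNAs at z>3 retested using 3 new siRNAs.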

Substance | Viable cell density (%) | per cell luciferase yield (%)
163 (CCAGCGAUACAACUCCUAUTT; chemistry not given here; listed as Homo sapiens) [compound 163] | 83.636 | 176.821
164 (GCAGGCACAUGGUUCCUCUTT; chemistry not given here; listed as Homo sapiens) [compound 164] | 83.512 | 259.478
165 (AGGUCAAUGUGACUUUCCATT; chemistry not given here; listed as Homo sapiens) [compound 165] | 105.029 | 161.785
166 (CCAAGUCCAAUGCACCUGUTT; chemistry not given here; listed as Homo sapiens) [compound 166] | 76.798 | 186.195
167 (CCUGGACAGUUUGAAGCAATT; chemistry not given here; listed as Homo sapiens) [compound 167] | 88.009 | 174.946
168 (GCUUCCUCUUGGACCUCAATT; chemistry not given here; listed as Homo sapiens) [compound 168] | 78.156 | 185.175
169 (GCGGAAAAGGUAUCCCUCATT; chemistry not given here; listed as Homo sapiens) [compound 169] | 80.173 | 184.608
170 (CCAACAAGGAAGACGAAAATT; chemistry not given here; listed as Homo sapiens) [compound 170] | 267.320 | 284.062
171 (CCCUGUUCAUUAUAAGUCUTT; chemistry not given here; listed as Homo sapiens) [compound 171] | 279.253 | 272.683
172 (GGAUAUUGGAGGCUAGUCATT; chemistry not given here; listed as Homo sapiens) [compound 172] | 289.677 | 157.868
173 (GACUAUUGAUACCAAAACATT; chemistry not given here; listed as Homo sapiens) [compound 173] | 82.689 | 209.398
174 (GCAAUGCUUGCAAAACUCATT; chemistry not given here; listed as Homo sapiens) [compound 174] | 90.976 | 189.252
175 (CAUUGGUGUUGACAAUCCATT; chemistry not given here; listed as Homo sapiens) [compound 175] | 85.046 | 189.850
176 (GUUGCAAACUUAUCGAGGATT; chemistry not given here; listed as Homo sapiens) [compound 176] | 79.093 | 186.786
177 (CUCUUAUGGUAACCAAUGATT; chemistry not given here; listed as Homo sapiens) [compound 177] | 91.558 | 160.246
178 (AAAUGCAACCCAAAAAGUATT; chemistry not given here; listed as Homo sapiens) [compound 178] | 76.280 | 200.322
179 (GUACCUGCGGGAUUACUCATT; chemistry not given here; listed as Homo sapiens) [compound 179] | 90.987 | 160.687
180 (CCACCCUACUAUGUACUGUTT; chemistry not given here; listed as Homo sapiens) [compound 180] | 93.181 | 185.763
181 (GCUAAGUCUUUUCCACAGUTT; chemistry not given here; listed as Homo sapiens) [compound 181] | 94.537 | 155.385
182 (CAGUUACUUUCAAAACUCUTT; chemistry not given here; listed as Homo sapiens) [compound 182] | 91.714 | 202.960
183 (CAACAGAUCAGAGAACAAATT; chemistry not given here; listed as Homo sapiens) [compound 183] | 92.429 | 156.418
184 (GCCUGAAUCUUGUCCCAAATT; chemistry not given here; listed as Homo sapiens) [compound 184] | 82.390 | 228.483
185 (GAAGAAGACUCUGUACUCATT; chemistry not given here; listed as Homo sapiens) [compound 185] | 66.511 | 215.853

Substance | Viable cell density (%) | per cell luciferase yield (%)
186 (CGAAACUUGUCAACGGGAATT; chemistry not given here; listed as Homo sapiens) [compound 186] | 104.553 | 179.207
187 (AGAAAGCUUUGGGCAAAUATT; chemistry not given here; listed as Homo sapiens) [compound 187] | 75.570 | 200.070
188 (GGAAGAACGUCUUGCACAATT; chemistry not given here; listed as Homo sapiens) [compound 188] | 85.471 | 183.071
189 (GAACAAAAUAGACCUCUUATT; chemistry not given here; listed as Homo sapiens) [compound 189] | 101.897 | 162.677
190 (CUGUGGAAAAGAUACCGUATT; chemistry not given here; listed as Homo sapiens) [compound 190] | 95.368 | 152.850
191 (GCCCACUAUUCUCAGCUCATT; chemistry not given here; listed as Homo sapiens) [compound 191] | 66.121 | 214.156
192 (GCAUCUGUCCGAUCGCUCUTT; chemistry not given here; listed as Homo sapiens) [compound 192] | 105.514 | 143.889
193 (GGGACACUGUCAACCUCUATT; chemistry not given here; listed as Homo sapiens) [compound 193] | 74.811 | 205.132
194 (CAUCAAGCCCUGUAAGUCUTT; chemistry not given here; listed as Homo sapiens) [compound 194] | 89.583 | 163.431
195 (UGAAGAUAAUCGAGAAAUATT; chemistry not given here; listed as Homo sapiens) [compound 195] | 67.947 | 258.104
196 (ACAGGUCUUUAUCAAAGCATT; chemistry not given here; listed as Homo sapiens) [compound 196] | 100.201 | 153.426
197 (GACUCAGAGUAACAACGCATT; chemistry not given here; listed as Homo sapiens) [compound 197] | 95.471 | 162.372
198 (GCCUAGGAGUUAUCCUCUATT; chemistry not given here; listed as Homo sapiens) [compound 198] | 112.248 | 137.554
199 (CUAACUACCCAGACCCUUATT; chemistry not given here; listed as Homo sapiens) [compound 199] | 88.359 | 164.639
200 (GCAACAGAAUCGAGCAAGATT; chemistry not given here; listed as Homo sapiens) [compound 200] | 105.583 | 154.286
201 (CCCUGAAGGUUACCUCUUUTT; chemistry not given here; listed as Homo sapiens) [compound 201] | 63.690 | 273.535
202 (GGAUGACGAGCUGAACUUUTT; chemistry not given here; listed as Homo sapiens) [compound 202] | 113.437 | 140.103
203 (GAUUACUUCUUGACUAUCATT; chemistry not given here; listed as Homo sapiens) [compound 203] | 123.199 | 150.843
204 (CUCCCGCAGUUGAACAUCATT; chemistry not given here; listed as Homo sapiens) [compound 204] | 109.377 | 136.174
205 (CUCUGAUUGUCACCUCUUATT; chemistry not given here; listed as Homo sapiens) [compound 205] | 61.943 | 281.113
206 (GCUCCUCUGUUACCACAGATT; chemistry not given here; listed as Homo sapiens) [compound 206] | 91.526 | 179.268
207 (CGCUCACCAACAGCAGAAATT; chemistry not given here; listed as Homo sapiens) [compound 207] | 102.629 | 146.756
